Several values for one entry are separate records, joined by “and”; a condition that tells them apart may be missing. Equal values may be shown once. Read-outs that look alike come from different tables or passages of the source. Marks after values point to notes of the source that are not given here.
Experiments:
[1] = male, human, in vivo
[2] = Phase I drug-drug interaction PK, Group 1: THC/CBD spray alone or with rifampicin, plasma by GC-MS; conditions: for AUC(0-inf) / AUC(0-t) / CL/F / Cmax / Kel / Varea/F / t½ / Tmax: n = 12, plasma; for AUC(0-inf) / AUC(0-t) / CL/F / Cmax / Kel / Varea/F / t½: mean (SD); for Tmax: median (range)
Procedure: (§1) Subjects received rifampicin on Days 1-9. […] Subjects received ketoconazole on Days 1-4.
(§2) Blood samples were collected at specified times and stored on ice (except rifampicin PK samples which were stored in iced water) prior to processing and storage. Plasma samples were separated by centrifugation (approximately 2500 rpm × 15 minutes at 4°C). Samples were stored in 4 mL amber glass screw top glass vials with PTFE lined screw caps labelled with Guys Drug Research (Quintiles Limited) labels. The aliquots were stored in clearly labelled containers in a freezer set at or below -20°C, until shipped for assay. Samples were shipped on dry ice at the appropriate time-points.
(§3) The assay validation was undertaken by Advanced Bioanalytical Service Laboratories (London, UK), who developed the technique after reviewing the literature, which was based on the methodology adopted by three different groups (Foltz et al. [1983]; Goodall & Basteyns [1995]; Kemp et al. [1995]), and designed with reference to FDA guidelines for industry (FDA Guidance for Industry [2012]). The method utilised protein precipitation, solvent extraction and derivatisation for the sample preparation and then sample analysis by capillary gas chromatography and detection by a mass spectrometer (GC-MS). The validation procedure investigated the calibration model with the best regression fit over the concentration range 0.1 - 100 ng/mL for CBD, THC and 11-OH-THC, as well as precision and accuracy of the method, stability, carry-over, and specificity.
(§4) Human plasma from healthy volunteers was used to prepare the standards and quality control (QC) samples, with analytes extracted using hexane/ethyl acetate (7:1 ratio), derivatised with N,O-Bis(trimethylsilyl)trifluoroacetamide. Analytic grade THC (Sigma, UK), CBD (Sigma, UK) and 11-OH-THC (Radian International and Cerillant, UK) were obtained, and three sets of CBD, THC and 11-OH-THC were used to support the study. Deuterated THC-d3 (Sigma, UK) was used as the internal standard. The GC-MS equipment was a Hewlett Packard 6890 Gas Chromatograph attached to a Hewlett Packard 5973 Mass Selective Detector. Data handling was carried out using an MS Chemstation System and the peak area ratio of the analytes to the internal standard was calculated in Excel (2000). The concentrations were calculated from the ratio data using least squares ln(y) on ln(x) regression performed in Excel (2000), and were then checked manually. Regression analysis was undertaken to find the regression model that best described the calibration data (for details, see ([Miller & Miller 1992])).
(§5) A 0.5 mL aliquot of test sample, QC or blank plasma was placed into a test tube. The blank plasma was spiked with 50 μL of the appropriate standard solution to produce the calibration standards. 50 μL of the internal standard was added to each test tube. The samples were then diluted by the addition of 500 μL of 0.1% (w/v) ascorbic acid and the protein precipitated by the addition of 1.0 mL of acetonitrile. The proteins were removed by centrifugation and the supernatant concentrated to 1 mL using nitrogen at 50 °C. The samples were then basified by the addition of 300 μL of 5M sodium hydroxide and the analytes extracted by the addition of 2.0 mL of 7:1 hexane:ethyl acetate. After mixing for 16 minutes the tubes were centrifuged and the top layer transferred into clean 3 dram vials. The solvent was removed using nitrogen at 70 °C and the dried extract resuspended in 100 μL of BSTFA and transferred to microvials, capped and placed at 70 °C for 30 minutes to derivatise the analytes. The microvials were then cooled and loaded onto the autosampler tray for analysis where 1 μL was injected onto the GC-MS system.

[3] = Phase I drug-drug interaction PK, Group 3: THC/CBD spray alone or with omeprazole, plasma by GC-MS; conditions: for AUC(0-inf) / AUC(0-t) / CL/F / Cmax / Kel / Varea/F / t½ / Tmax: n = 12, plasma; for AUC(0-inf) / AUC(0-t) / CL/F / Cmax / Kel / Varea/F / t½: mean (SD); for Tmax: median (range); for Cmax and AUC % Co-efficient of Variation (CV%) range: inter-subject variability
Procedure: as §1, §2, §3, §4, §5

[4] = Phase I drug-drug interaction PK, Group 2: THC/CBD spray alone or with ketoconazole, plasma by GC-MS; conditions: for AUC(0-inf) / AUC(0-t) / CL/F / Cmax / Kel / Varea/F / t½ / Tmax: plasma; for AUC(0-inf) / AUC(0-t) / CL/F / Cmax / Kel / Varea/F / t½: mean (SD); for Tmax: median (range)
Procedure: as §1, §2, §3, §4, §5

[5] = Rifampicin and THC/CBD spray vs THC/CBD spray alone, no-interaction range 0.80 to 1.25
[6] = THC/CBD spray 4 sprays and rifampicin 600 mg after repeated daily dosing
[7] = THC/CBD spray alone, single dose 4 sprays (10.8/10 mg), rifampicin group
[8] = THC/CBD spray co-administered with rifampicin vs alone
[9] = Omeprazole and THC/CBD spray vs THC/CBD spray alone, no-interaction range 0.80 to 1.25
[10] = THC/CBD spray 4 sprays and omeprazole 40 mg at end of 6-day dosing period
[11] = THC/CBD spray alone, single dose 4 sprays (10.8/10 mg), omeprazole group
[12] = THC/CBD spray co-administered with omeprazole vs alone
[13] = Ketoconazole and THC/CBD spray vs THC/CBD spray alone, no-interaction range 0.80 to 1.25
[14] = THC/CBD spray 4 sprays and ketoconazole 400 mg at end of 5-day dosing period, n = 11
[15] = THC/CBD spray alone, single dose 4 sprays (10.8/10 mg), ketoconazole group, n = 12
[16] = THC/CBD spray co-administered with ketoconazole vs alone

Compound: COc1ccc2[nH]c([S+]([O-])Cc3ncc(C)c(OC)c3C)nc2c1 (stereo not drawn) [Omeprazole, omeprazole]
- Dizziness (TEAE) ([1]; 5 days): 0 No. of subjects (%)
- Dizziness postural (TEAE) ([1]; 5 days): 0 No. of subjects (%)
- Dry mouth (TEAE) ([1]; 5 days): 0 No. of subjects (%)
- Headache (TEAE) ([1]; 5 days): 1 (8) No. of subjects (%)
- Somnolence (TEAE) ([1]; 5 days): 0 No. of subjects (%)

Compound: CO[C@H]1/C=C/O[C@@]2(C)Oc3c(C)c(O)c4c(O)c(c(/C=N/N5CCN(C)CC5)c(O)c4c3C2=O)NC(=O)/C(C)=C\C=C\[C@H](C)[C@H](O)[C@@H](C)[C@@H](O)[C@@H](C)[C@H](OC(C)=O)[C@@H]1C [Rifampicin, rifampicin]
- Dysgeusia (TEAE) ([1]; 9 days): 1 (8) No. of subjects (%)
- Headache (TEAE) ([1]; 9 days): 0 No. of subjects (%)
- Somnolence (TEAE) ([1]; 9 days): 0 No. of subjects (%)

Compound: CCCCCc1cc(O)c2c(c1)OC(C)(C)[C@@H]1CCC(C)=C[C@@H]21 [THC, Δ9-tetrahydrocannabinol]
- Geometric mean ratio of AUC(0-inf), point estimate [2, 5]: 0.761
- Geometric mean ratio of AUC(0-t), point estimate [2, 5]: 0.711
- Geometric mean ratio of Cmax, point estimate [2, 5]: 0.614
- AUC(0-inf) [2, 6]: 7.53 (2.99) h*ng/mL
- AUC(0-t) [2, 6]: 6.53 (2.70) h*ng/mL
- CL/F [2, 6]: 1595 L/h and 1595 (473) L/h
- Cmax [2, 6]: 1.88 (1.07) ng/mL
- Kel [2, 6]: 0.189 (0.071) h^-1
- Varea/F [2, 6]: 10297 (5888) L
- t½ [2, 6]: 4.93 (3.91) h
- Tmax [2, 6]: 1.75 (1.25-2.57) h
- AUC(0-inf) [2, 7]: 9.86 (3.35)^a h*ng/mL
- AUC(0-t) [2, 7]: 9.10 (2.98) h*ng/mL
- CL/F [2, 7]: 1207 L/h and 1207 (373)^a L/h
- Cmax [2, 7]: 2.94 (1.21) ng/mL
- Kel [2, 7]: 0.197 (0.093)^a h^-1
- Varea/F [2, 7]: 7625 (4326)^a L
- t½ [2, 7]: 4.68 (3.42) ^a h
- Tmax [2, 7]: 1.01 (0.50-6.02) h
- % change in mean t1/2 [2, 8]: +5%
- % change in median Tmax [2, 8]: +73%
- Change in mean Cmax ([2]; THC/CBD spray with rifampicin vs THC/CBD spray alone): -36%
- Change in mean CL/F ([2]; after multiple dose rifampicin treatment vs THC/CBD spray alone): +32%
- Geometric mean ratio of AUC(0-inf), point estimate [3, 9]: 0.962
- Geometric mean ratio of AUC(0-t), point estimate [3, 9]: 0.964
- Geometric mean ratio of Cmax, point estimate [3, 9]: 1.125
- AUC(0-inf) [3, 10]: 8.10 (4.78) h*ng/mL
- AUC(0-t) [3, 10]: 7.41 (4.75) h*ng/mL
- CL/F [3, 10]: 2284 (2520) L/h
- Cmax [3, 10]: 2.48 (1.06) ng/mL
- Kel [3, 10]: 0.357 (0.218) h^-1
- Varea/F [3, 10]: 6052 (3384) L
- t½ [3, 10]: 2.37 (0.92) h
- Tmax [3, 10]: 1.25 (1.00-1.75) h
- AUC(0-inf) [3, 11]: 9.39 (8.81) h*ng/mL
- AUC(0-t) [3, 11]: 8.76 (8.62) h*ng/mL
- CL/F [3, 11]: 2161 (1990) L/h
- Cmax [3, 11]: 2.50 (1.85) ng/mL
- Kel [3, 11]: 0.305 (0.109) h^-1
- Varea/F [3, 11]: 6889 (5296) L
- t½ [3, 11]: 2.65 (1.25) h
- Tmax [3, 11]: 1.25 (0.77-3.02) h
- Plasma concentrations and PK parameters compared with THC/CBD spray alone ([3]; THC/CBD spray at end of 6-day omeprazole dosing): similar
- % change in Tmax [3, 12]: 0%
- % change in t1/2 [3, 12]: -11%
- Differences in CL/F on co-administration with omeprazole ([3]; THC/CBD spray with omeprazole vs alone): No significant differences
- Substrate for the isoenzyme CYP2C19 (conclusion from omeprazole interaction) ([3]; at the clinically relevant dose of THC/CBD spray investigated): not substrates
- Cmax and AUC % Co-efficient of Variation (CV%) range ([3]; THC/CBD spray alone, omeprazole group): 74-98%
- Cmax and AUC % Co-efficient of Variation (CV%) range ([3]; THC/CBD spray in combination with omeprazole): 43-64%
- Geometric mean ratio of AUC(0-inf), point estimate [4, 13]: 1.840
- Geometric mean ratio of AUC(0-t), point estimate [4, 13]: 1.770
- Geometric mean ratio of Cmax, point estimate [4, 13]: 1.252
- AUC(0-inf) [4, 14]: 16.76 (13.80) h*ng/mL
- AUC(0-t) [4, 14]: 15.38 (13.43) h*ng/mL
- CL/F [4, 14]: 920 L/h and 920 (450) L/h
- Cmax [4, 14]: 3.36 (1.65) ng/mL
- Kel [4, 14]: 0.189 (0.078) h^-1
- Varea/F [4, 14]: 5111 (2221) L
- t½ [4, 14]: 4.43 (2.19) h
- Tmax [4, 14]: 1.75 (1.00-3.00) h
- AUC(0-inf) [4, 15]: 9.22 (5.94)^a h*ng/mL
- AUC(0-t) [4, 15]: 8.19 (5.67) h*ng/mL
- CL/F [4, 15]: 1504 L/h and 1504 (688)^a L/h
- Cmax [4, 15]: 2.65 (1.32) ng/mL
- Kel [4, 15]: 0.258 (0.092)^a h^-1
- Varea/F [4, 15]: 6328 (4164)^a L
- t½ [4, 15]: 3.07 (1.31)^a h
- Tmax [4, 15]: 1.50 (0.75-6.00) h
- % change in mean Tmax [4, 16]: +17%
- % change in t1/2 [4, 16]: +44%
- Change in mean Cmax ([4]; THC/CBD spray with ketoconazole vs THC/CBD spray alone): +27%
- Change in mean CL/F ([4]; co-administered with ketoconazole vs THC/CBD spray alone): -39%
- Substrate for the isoenzyme CYP3A4 (conclusion from ketoconazole interaction) ([4]; suggested by increased exposure with ketoconazole): substrates

From article PMC3671111, “A Phase I, open-label, randomized, crossover study in three parallel groups to evaluate the effect of Rifampicin, Ketoconazole, and Omeprazole on the pharmacokinetics of THC/CBD oromucosal spray in healthy volunteers” (SpringerPlus, 2013)
